Data on one compound can be found in patent US9173397B2, “Formulation component” (Syngenta Limited, priority 2011, dated 2015).

Type in all cases: in vivo
For test [1], the system named is Abutilon theophrasti, Chenopodium album, Digitaria sanguinalis, Setaria viridis. The experiment in a line: Glasshouse weed kill, nicosulfuron with/without adjuvants (Example 3). As to conditions: conclusion from Table 4. The protocol:
The efficacy of the aromatic acid ester Morflex ®560 (tri-n-hexyltrimellitate) as an adjuvant for the herbicide nicosulfruon was tested against four weed species in a glasshouse and compared to the well-know adjuvants, tris-2-ethylhexyl phosphate and acetyl tributyl citrate which were tested at concentrations of 0.2% w/w. The adjuvant oils were emulsified using a small amount of the surfactant Pluronic® PE 10500, which was present in the composition at a concentration of 0.02% v/v.
An agrochemical composition was prepared containing 0.2% v/v of the adjuvant in a track sprayer, and was applied at a volume of 200 liters per hectare. Nicosulfuron was applied at a rate of either 30 or 60 grams of pesticide per hectare. The weed species and their growth stage at spraying were Abutilon theophrasti (ABUTH; growth stage 13), Chenopodium album (CHEAL; growth stage 14), Digitaria sanguinalis (DIGSA; growth stage 13), and Setaria viridis (SETVI; growth stage 13).
Each spray test replicated three times. The efficacy of the herbicide was assessed visually and expressed as a percentage of the leaf area killed. Samples were assessed at time periods of 14 and 21 days following application. […]

The test system of test [2] is Chenopodium album, Abutilon theophrasti, Setaria viridis, Xanthium strumarium. Put plainly: Glasshouse weed kill, fomesafen with/without adjuvants (Example 4). The note with it: conclusion from Table 5. The protocol: The efficacy of the aromatic acid ester Morflex ®560 (tri-n-hexyltrimellitate) as an adjuvant for the herbicide fomesafen was tested against four weed species in a glasshouse and compared to the well-know adjuvants, acetyl tributyl citrate and Turbocharge® which were added at concentrations of 0.2 and 0.5% w/w respectively. The adjuvant oils were emulsified using a small amount of the surfactant Pluronic® PE 10500, which was present in the composition at a concentration of 0.02% v/v.
An agrochemical composition was prepared containing 0.2% v/v of the adjuvant in a track sprayer and was applied at a volume of 200 liters per hectare. Fomesafen was applied at either 60 or 120 grams of pesticide per hectare on each of the weed species. The weed species and their growth stage at spraying were Chenopodium album (CHEAL; growth stage 14), Abutilon theophrasti (ABUTH; growth stage 12), Setaria viridis (SETVI; growth stage 13), and Xanthium strumarium (XANST; growth stage 12).
Each spray test was replicated three times. The efficacy of the herbicide was assessed visually and expressed as a percentage of the leaf area killed. Samples were assessed at time periods of 7, 14 and 21 days following application. […]

Test [3] deals with Alopecurus myosuroides, Avena fatua, Lolium perenne, Setaria viridis. The experiment in a line: Glasshouse weed kill, pinoxaden with/without adjuvants (Example 6). As to conditions: conclusion from Table 7. Here is the method: The efficacy of the aromatic ester tri-n-hexyltrimellitate (Morflex®560) was tested in a glasshouse against four weed species using the herbicide pinoxaden. An agrochemical composition was prepared containing 0.2% v/v of the adjuvant in a track sprayer and was applied at a volume of 200 liters per hectare. The adjuvant oils were emulsified using a small amount of the surfactant Pluronic® PE 10500, which was present in the composition at a concentration of 0.02% v/v. Pinoxaden was applied at either 7.5 or 15 grams of pesticide per hectare on each of the weed species. The weed species and their growth stage at spraying were Alopecurus myosuroides (ALOMY; growth stage 13), Avena fatua (AVEFA; growth stage 12); Lolium perenne (LOLPE; growth stage 13), Setaria viridis (SETVI; growth stage 14).
Each spray test was replicated three times. The efficacy of the herbicide was assessed visually and expressed as a percentage of the leaf area killed. Samples were assessed at time periods of 14 and 21 days following application. The results shown in table 7 below are mean averages over the two rates of pinoxaden, three replicates, four weed species and the two assessment timings, and are compared to the efficacy of pinoxaden in the absence of adjuvant and pinoxaden in the presence of the known adjuvant acetyl tributyl citrate which was used at a concentration of 0.2% w/w.

For test [4], the system named is Abutilon theophrasti, Chenopodium album, Digitaria sanguinalis, Setaria viridis. The note with it: conclusion from Table 8. Here is the method: The efficacy of the aromatic esters tri-n-hexyltrimellitate (Morflex®560) and tri-isodecylmellitate (Morflex®530) as adjuvants for nicosulfuron were tested in a glasshouse against four weed species. An agrochemical composition was prepared containing 0.2% v/v of the adjuvant in a track sprayer, and was applied at a volume of 200 liters per hectare. The adjuvant oils were emulsified using a small amount of the surfactant Pluronic® PE 10500, which was present in the composition at a concentration of 0.02% v/v. Nicosulfuron was applied at a rate of either 30 or 60 grams per hectare. The weed species and their growth stage at spraying were Abutilon theophrasti (ABUTH; growth stage 13), Chenopodium album (CHEAL; growth stage 14), Digitaria sanguinalis (DIGSA; growth stage 13), and Setaria viridis (SETVI; growth stage 13).
Each spray test was replicated three times. The efficacy of the herbicide was assessed visually and expressed as a percentage of the leaf area killed. Samples were assessed at time periods of 14 and 21 days following application. […] In this experiment Atplus®411F was added at the higher rate of 0.5% v/v. The other adjuvants were added at 0.2% v/v.

Test [5] relates to Alopecurus myosuroides, Avena fatua, Lolium perenne, Setaria viridis. The experiment in a line: Glasshouse weed kill, pinoxaden with/without adjuvants (Example 8). As to conditions: conclusion from Table 9. Here is the method:
The efficacy of the aromatic esters tri-n-hexyltrimellitate (Morflex®560) and tri-isodecylmellitate (Morflex®530) as adjuvants for pinoxaden were tested in a glasshouse against four weed species. An agrochemical composition was prepared containing 0.2% v/v of the adjuvant in a track sprayer and was applied at a volume of 200 liters per hectare. Pinoxaden was applied at either 7.5 or 15 grams per hectare on each of the weed species. The weed species and their growth stage at spraying were Alopecurus myosuroides (ALOMY; growth stage 13), Avena fatua (AVEFA; growth stage 12); Lolium perenne (LOLPE; growth stage 13), Setaria viridis (SETVI; growth stage 14).
Each spray test was replicated three times. The efficacy of the herbicide was assessed visually and expressed as a percentage of the leaf area killed. Samples were assessed at time periods of 7 and 14 days following application. The results shown in Table 9 below are mean averages over the two rates of pinoxaden, three replicates, four weed species and the two assessment timings. The results were compared to the efficacy of pinoxaden in the absence of an adjuvant and pinoxaden in the presence of either tri-2-ethylhexyl phosphate (applied at 0.5% v/v) or methyl oleate (applied at 0.2% v/v).

Where two headings read alike, the source gives them in different places.

On to `CCCCCCOC(=O)c1ccc(C(=O)OCCCCCC)c(C(=O)OCCCCCC)c1` [Tri-n-hexyltrimellitate, Tri-n-hexyl trimellitate], for which the “adjuvant efficacy in words (nicosulfuron)” value is “as effective an adjuvant as either tris-2-ethylhexylphosphate or acetyl tributyl citrate” in test [1]; “more effective an adjuvant than methyl oleate and as effective an adjuvant as Atplus®411F” in test [4]. The “adjuvant efficacy in words (fomesafen)” value in test [2] was “as effective an adjuvant as Turbocharge® and better than acetyl tributyl citrate”. Further, the “adjuvant efficacy in words (pinoxaden)” value in test [3] is recorded as “more effective an adjuvant than acetyl tributyl citrate”; in test [5], “increases the efficacy of pinoxaden”.
